Test results taken from patent US9540366B2, “Ring-fused heterocyclic compound” (Kyowa Hakko Kirin Co., Ltd., priority 2012, dated 2017).
Like-named read-outs stand apart in the source and are kept apart here.

Biological target: T1, human Cav3.2 T-type Ca2+ channel (Homo sapiens, UniProt O95180)
T1 construct: expressed in transfected cells; host or cells: KJMGER8 cells (Namalwa cell-derived cell line)
Experiment: Inhibitory effect for intracellular calcium response via Cav3.2 T-type Ca2+ channels (FLIPR Calcium 3 Assay Kit)
Assay type: cell-based

[1] = human Cav3.2-expressing KJMGER8 cells (Namalwa-derived), calcium response induced by 5 mmol/L CaCl2, 3 μmol/L mibefradil as reference, read-out: IC50 for the human Cav3.2 T-type Ca2+ current

T1 sequence (O95180 whole entry): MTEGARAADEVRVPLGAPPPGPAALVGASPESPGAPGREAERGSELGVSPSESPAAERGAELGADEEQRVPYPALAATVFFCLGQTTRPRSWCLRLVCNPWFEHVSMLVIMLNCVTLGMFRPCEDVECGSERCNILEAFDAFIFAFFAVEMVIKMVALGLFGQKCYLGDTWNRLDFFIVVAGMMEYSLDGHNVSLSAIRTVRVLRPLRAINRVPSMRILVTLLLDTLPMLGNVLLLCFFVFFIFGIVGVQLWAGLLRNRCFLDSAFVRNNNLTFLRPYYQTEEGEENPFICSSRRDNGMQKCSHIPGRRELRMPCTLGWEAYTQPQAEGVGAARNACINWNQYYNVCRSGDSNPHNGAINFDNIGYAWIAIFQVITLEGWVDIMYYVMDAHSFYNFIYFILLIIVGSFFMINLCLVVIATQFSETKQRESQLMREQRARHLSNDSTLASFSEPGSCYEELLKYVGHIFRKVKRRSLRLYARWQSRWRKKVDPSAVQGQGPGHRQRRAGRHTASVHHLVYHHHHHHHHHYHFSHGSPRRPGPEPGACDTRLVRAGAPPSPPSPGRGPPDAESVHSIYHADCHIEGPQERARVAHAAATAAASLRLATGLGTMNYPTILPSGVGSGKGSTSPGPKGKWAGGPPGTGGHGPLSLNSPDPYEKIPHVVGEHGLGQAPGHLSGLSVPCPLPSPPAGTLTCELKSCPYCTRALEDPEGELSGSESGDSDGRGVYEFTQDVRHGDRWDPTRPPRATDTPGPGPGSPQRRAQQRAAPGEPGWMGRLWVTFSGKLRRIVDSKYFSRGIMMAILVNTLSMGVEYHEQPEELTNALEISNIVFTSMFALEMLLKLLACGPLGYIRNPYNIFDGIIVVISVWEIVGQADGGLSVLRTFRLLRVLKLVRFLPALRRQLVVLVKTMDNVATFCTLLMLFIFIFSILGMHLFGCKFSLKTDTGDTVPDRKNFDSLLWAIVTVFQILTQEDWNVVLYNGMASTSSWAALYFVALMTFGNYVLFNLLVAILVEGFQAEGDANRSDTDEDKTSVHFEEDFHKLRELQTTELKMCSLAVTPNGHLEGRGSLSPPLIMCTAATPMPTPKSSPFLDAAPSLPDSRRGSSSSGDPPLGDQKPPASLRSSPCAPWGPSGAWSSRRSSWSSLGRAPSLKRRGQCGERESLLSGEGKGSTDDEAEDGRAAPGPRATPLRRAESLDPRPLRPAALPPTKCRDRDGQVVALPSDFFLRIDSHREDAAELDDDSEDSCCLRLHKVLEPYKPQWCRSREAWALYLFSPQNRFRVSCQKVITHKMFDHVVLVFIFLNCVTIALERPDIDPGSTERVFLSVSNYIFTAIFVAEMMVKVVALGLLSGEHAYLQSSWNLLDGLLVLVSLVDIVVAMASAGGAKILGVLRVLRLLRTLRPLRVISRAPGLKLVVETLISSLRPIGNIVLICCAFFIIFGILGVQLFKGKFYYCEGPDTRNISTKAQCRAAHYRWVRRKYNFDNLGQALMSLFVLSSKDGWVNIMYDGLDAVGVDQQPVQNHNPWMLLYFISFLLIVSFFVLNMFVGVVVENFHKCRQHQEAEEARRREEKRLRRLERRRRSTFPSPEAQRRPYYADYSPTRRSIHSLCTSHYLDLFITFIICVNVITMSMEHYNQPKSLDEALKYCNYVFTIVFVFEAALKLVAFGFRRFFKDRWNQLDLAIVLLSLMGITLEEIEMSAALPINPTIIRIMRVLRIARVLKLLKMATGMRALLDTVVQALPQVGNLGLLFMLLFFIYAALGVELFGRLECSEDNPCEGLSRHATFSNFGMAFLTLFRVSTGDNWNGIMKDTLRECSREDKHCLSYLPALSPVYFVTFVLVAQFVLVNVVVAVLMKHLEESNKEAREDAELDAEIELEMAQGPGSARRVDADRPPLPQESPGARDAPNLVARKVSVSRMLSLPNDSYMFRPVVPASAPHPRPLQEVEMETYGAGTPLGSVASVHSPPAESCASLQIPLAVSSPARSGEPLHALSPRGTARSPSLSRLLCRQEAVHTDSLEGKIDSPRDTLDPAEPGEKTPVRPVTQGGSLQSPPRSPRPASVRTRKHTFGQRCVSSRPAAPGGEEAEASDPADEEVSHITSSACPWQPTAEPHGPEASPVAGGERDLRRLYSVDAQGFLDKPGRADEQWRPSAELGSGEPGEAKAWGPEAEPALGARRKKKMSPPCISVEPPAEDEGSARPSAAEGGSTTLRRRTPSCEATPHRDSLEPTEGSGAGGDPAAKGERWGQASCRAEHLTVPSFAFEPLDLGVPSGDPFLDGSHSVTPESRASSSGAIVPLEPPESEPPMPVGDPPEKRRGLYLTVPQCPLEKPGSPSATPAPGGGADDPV

SMILES	IC50	IC50 [1]
N#Cc1cc(C(=O)NC2CCC2)cc2nc(C(F)(F)F)c(CC3CCC(F)(F)CC3)n12 [Compound 54, 5-Cyano-N-cyclobutyl-3-[(4,4-difluorocyclohexyl)methyl]-2-(trifluoromethyl)imidazo[1,2-a]pyridine-7-carboxamide]	≤ 100 nM	–
N#Cc1cc(C(=O)N[C@H]2CC[C@H](O)CC2)cc2nc(C(F)(F)F)c(CC3CCC(F)(F)CC3)n12 [Compound 56, 5-Cyano-3-[(4,4-difluorocyclohexyl)methyl]-N-[(1R,4R)-4-hydroxycyclohexyl]-2-(trifluoromethyl)imidazo[1,2-a]pyridine-7-carboxamide]	≤ 100 nM	–
CC1(C)CC(NC(=O)c2cc(C#N)n3c(CC4CCC(F)(F)CC4)c(C(F)(F)F)nc3c2)CCO1 (centres unmarked) [Compound 57, 5-Cyano-3-[(4,4-difluorocyclohexyl)methyl]-N-(2,2-dimethyltetrahydro-2H-pyran-4-yl)-2-(trifluoromethyl)imidazo[1,2-a]pyridine-7-carboxamide]	≤ 100 nM	–
N#Cc1cc(C(=O)NC2(CO)CCOCC2)cc2nc(C(F)(F)F)c(CC3CCC(F)(F)CC3)n12 [Compound 58, 5-Cyano-3-[(4,4-difluorocyclohexyl)methyl]-N-[4-(hydroxymethyl)tetrahydro-2H-pyran-4-yl]-2-(trifluoromethyl)imidazo[1,2-a]pyridine-7-carboxamide]	≤ 100 nM	–
N#Cc1cc(C(=O)NCC2COCCO2)cc2nc(C(F)(F)F)c(CC3CCC(F)(F)CC3)n12 (centres unmarked) [Compound 59, N-[(1,4-Dioxan-2-yl)methyl]-5-cyano-3-[(4,4-difluorocyclohexyl)methyl]-2-(trifluoromethyl)imidazo[1,2-a]pyridine-7-carboxamide]	–	≤ 100 nM
N#Cc1cc(C(=O)NC2COC2)cc2nc(C(F)(F)F)c(CC3CCC(F)(F)CC3)n12 [Compound 60]	–	≤ 100 nM
N#Cc1cc(C(=O)NC2CCOC2)cc2nc(C(F)(F)F)c(CC3CCC(F)(F)CC3)n12 (centres unmarked) [Compound 62]	≤ 100 nM	–
CC(C)(NC(=O)c1cc(C#N)n2c(CC3CCC(F)(F)CC3)c(C(F)(F)F)nc2c1)C1CCOCC1 [Compound 63, 5-Cyano-3-[(4,4-difluorocyclohexyl)methyl]-N-[2-(tetrahydro-2H-pyran-4-yl)propan-2-yl]-2-(trifluoromethyl)imidazo[1,2-a]pyridine-7-carboxamide]	≤ 100 nM	–
N#Cc1cc(C(=O)NC2CCCOC2)cc2nc(C(F)(F)F)c(CC3CCC(F)(F)CC3)n12 (centres unmarked) [Compound 64]	–	≤ 100 nM
N#Cc1cc(C(=O)NOC2CCOCC2)cc2nc(C(F)(F)F)c(CC3CCC(F)(F)CC3)n12 [Compound 65]	≤ 100 nM	–
N#Cc1cc(C(=O)NC2(C3CCOCC3)CC2)cc2nc(C(F)(F)F)c(CC3CCC(F)(F)CC3)n12 [Compound 66, 5-Cyano-3-[(4,4-difluorocyclohexyl)methyl]-N-[1-(tetrahydro-2H-pyran-4-yl)cyclopropyl]-2-(trifluoromethyl)imidazo[1,2-a]pyridine-7-carboxamide]	≤ 100 nM	–
N#Cc1cc(C(=O)NCC(=O)c2ccccc2)cc2nc(C(F)(F)F)c(CC3CCC(F)(F)CC3)n12 [Compound 67, 5-Cyano-3-[(4,4-difluorocyclohexyl)methyl]-N-(2-oxo-2-phenylethyl)-2-(trifluoromethyl)imidazo[1,2-a]pyridine-7-carboxamide]	≤ 100 nM	–
N#Cc1cc(C(=O)NCC2(O)CC2)cc2nc(C(F)(F)F)c(CC3CCC(F)(F)CC3)n12 [Compound 69, 5-Cyano-3-[(4,4-difluorocyclohexyl)methyl]-N-[(1-hydroxycyclopropyl)methyl]-2-(trifluoromethyl)imidazo[1,2-a]pyridine-7-carboxamide]	≤ 100 nM	–
N#Cc1cc(C(=O)NC2CCC3(CC2)COC3)cc2nc(C(F)(F)F)c(CC3CCC(F)(F)CC3)n12 [Compound 70, 5-Cyano-3-[(4,4-difluorocyclohexyl)methyl]-N-(2-oxaspiro[3.5]nonan-7-yl)-2-(trifluoromethyl)imidazo[1,2-a]pyridine-7-carboxamide]	–	≤ 100 nM
